Assay results published in paper PMC10732257 (Oncotarget, 2023).

Legend:
[1] = Body weight change in MV-4-11 xenograft mice; type: in vivo, female BALB/c nude mice; details: all GFH009 treatment groups; through Day 28
Experimental: Figure 7 Effect of GFH009 on body weight change in MV-4-11 xenografts. Body weight change of MV-4-11 xenograft (Figure 6) are expressed as mean ± SEM. ^* […], ^** P < 0.01, ^**** P < 0.0001, two-way ANOVA with Dunnett’s multiple comparisons test analysis compared to the vehicle-treated (control) group.
Animals dosed BIW were given treatments on 2 consecutive days. Weights were recorded for each mouse every day and tumor volumes assessed 3 times a week. Total treatment administration occurred across 3 consecutive weeks.
Relative change in body weight (RCBW) was determined as RCBW (%) = (Bwi – BW0)/BW0 × 100, where Bwi is body weight of a given mouse on a given day, and BW0 is initial body weight on the day they were assigned to a treatment group.

CDK13/cyclin K = target: T1, CDK13/cyclin K (Homo sapiens, UniProt Q14004); experiment: CDK family off-target kinase activity (Eurofins); type: biochemical
T1 construct: purchased Eurofins Pharma Discovery Services UK Ltd
Excerpt: The pharmacodynamic and mechanistic foundation for the
CDK9 inhibitor for the treatment of hematologic malignancies
Supplementary Table 1: Inhibitory action of GFH009 on other CDK family members
Various CDK/ Remaining enzymatic activity (%) after
cognate cyclin pairs tested exposure to GFH009 at a concentration of Selectivity vs. CDK9
(also on this page, place not known: www.oncotarget.com Oncotarget, Materials Supplementary)
(1 picture or pasted object on this page, not shown here)

5-HT1A (serotonin) = target: T2, 5-HT1A (serotonin) (Homo sapiens, UniProt P08908); experiment: GPCR competitive antagonist (off-target inhibitory action) testing; type: cell-based
T2 construct: Wuxi AppTech (Shanghai, China)
Excerpt: (§1) Supplementary Table 3: Results of off-target inhibitory action testing of GFH009 administered at
(§2) Competitive antagonist activity against GPCR type shown below

ETA (endothelin) = target: T3, ETA (endothelin) (Homo sapiens, UniProt P25101); experiment: as above; type: cell-based
T3 construct: Wuxi AppTech (contract laboratory)
Excerpt: as §1, §2

AD2 (adenosine) = experiment: as above; type: cell-based
Excerpt: as §1, §2

5-HT1B (serotonin) = target: T4, 5-HT1B (serotonin) (Homo sapiens, UniProt P28222); experiment: as above; type: cell-based
T4 construct: Wuxi AppTech (Shanghai, China)
Excerpt: as §1, §2

D2 (dopamine) = target: T5, D2 (dopamine) (Homo sapiens, UniProt P14416); experiment: as above; type: cell-based
T5 construct: Wuxi AppTech (contract laboratory)
Excerpt: as §1, §2

op-k (opioid) = op-k (opioid) (Homo sapiens, UniProt P41145); experiment: as above; type: cell-based
Excerpt: as §1, §2

op-m (opioid) = op-m (opioid) (Homo sapiens, UniProt P35372); experiment: as above; type: cell-based
Excerpt: as §1, §2

5-HT2B (serotonin) = target: T6, 5-HT2B (serotonin) (Homo sapiens, UniProt P41595); experiment: as above; type: cell-based
T6 construct: Wuxi AppTech (Shanghai, China)
Excerpt: as §1, §2

H2 (histamine) = H2 (histamine) (Homo sapiens, UniProt P25021); experiment: as above; type: cell-based
Excerpt: as §1, §2

a1a (adrenoceptor) = target: T7, a1a (adrenoceptor) (Homo sapiens, UniProt P35348); experiment: as above; type: cell-based
T7 construct: Wuxi AppTech (contract laboratory)
Excerpt: as §1, §2

V1A (vasopressin) = V1A (vasopressin) (Homo sapiens, UniProt P37288); experiment: as above; type: cell-based
Excerpt: as §1, §2

H1 (histamine) = target: T8, H1 (histamine) (Homo sapiens, UniProt P35367); experiment: as above; type: cell-based
T8 construct: Wuxi AppTech (contract laboratory)
Excerpt: as §1, §2

CB2 (cannabinoid) = target: T9, CB2 (cannabinoid) (Homo sapiens, UniProt P34972); experiment: as above; type: cell-based
T9 construct: Wuxi AppTech (contract laboratory)
Excerpt: as §1, §2

op-d (opioid) = op-d (opioid) (Homo sapiens, UniProt P41143); experiment: as above; type: cell-based
Excerpt: as §1, §2

CB1 (cannabinoid) = target: T10, CB1 (cannabinoid) (Homo sapiens, UniProt P21554); experiment: as above; type: cell-based
T10 construct: Wuxi AppTech (contract laboratory)
Excerpt: as §1, §2

CCKa = target: T11, CCKa (Homo sapiens, UniProt P32238); experiment: as above; type: cell-based
T11 construct: Wuxi AppTech (contract laboratory)
Excerpt: as §1, §2

b2 (adrenoceptor) = target: T12, b2 (adrenoceptor) (Homo sapiens, UniProt P07550); experiment: as above; type: cell-based
T12 construct: Wuxi AppTech (contract laboratory)
Excerpt: as §1, §2

5-HT2A (serotonin) = target: T13, 5-HT2A (serotonin) (Homo sapiens, UniProt P28223); experiment: as above; type: cell-based
T13 construct: Wuxi AppTech (Shanghai, China)
Excerpt: as §1, §2

a2a (adrenoceptor) = target: T14, a2a (adrenoceptor) (Homo sapiens, UniProt P08913); experiment: as above; type: cell-based
T14 construct: Wuxi AppTech (contract laboratory)
Excerpt: as §1, §2

b1 (adrenoceptor) = target: T15, b1 (adrenoceptor) (Homo sapiens, UniProt P08588); experiment: as above; type: cell-based
T15 construct: Wuxi AppTech (contract laboratory)
Excerpt: as §1, §2

D1 (dopamine) = target: T16, D1 (dopamine) (Homo sapiens, UniProt P21728); experiment: as above; type: cell-based
T16 construct: Wuxi AppTech (contract laboratory)
Excerpt: as §1, §2

MV-4-11 xenograft tumor = experiment: Western blot of CDK9-dependent protein expression in MV-4-11 xenograft tumor tissue; type: in vivo, female BALB/c nude mice; details: single dose 15 mg/kg i.v.
Experimental: Figure 9 Effect of GFH009 treatment on CDK9-dependent protein expression in vivo. Female BALB/c nude mice were subcutaneously inoculated with 5 × 10^6 MV-4-11 cells. […] The mice were euthanized, and tumor tissues were collected at different times after administration as indicated for western blot analysis. Three individual mice were selected from GFH009 treatment group.
In vivo protein expression was assessed via SDS-PAGE and western blotting of samples from female BALB/c nude mice following treatment with GHF009. […] When tumors reached approximately 600 mm^3 (Day 25), animals were randomly divided into two groups. Group 1 received a single dose of vehicle control. […] Both were administered via tail vein injection.
All mice were euthanized, and tumor tissues collected at required times following administration. Group 1 control animals were euthanized at 2 hours post-administration. Group 2 animals were euthanized at 1, 2, 4, 8, 24, and 48 hours after administration. Tumor tissue was harvested, weighed, and flash frozen in liquid nitrogen. Total proteins were extracted and analyzed by western blot to determine expression of phospho-Rpb1 CTD Ser2, RPB1, MYC, MCL-1, Cleaved Caspase-3, and vinculin. Image Studio V5.0 was used to analyze all western blot membrane images.

COC[C@@H](C)NC1CCC(Nc2cc(-c3csc(NCC4(C#N)CCOCC4)n3)c(Cl)cn2)CC1 (stereo partly drawn) [GFH009]
Relative change in body mass (RCBW%) vs initial [1]: ≤ 5% | Selectivity vs. CDK9 (CDK13/cyclin K): > 1000 | Remaining enzymatic activity (%) after exposure to GFH009 (CDK13/cyclin K; 1 µM): 93% | Remaining enzymatic activity (%) after exposure to GFH009 (CDK13/cyclin K; 10 µM): 88% | % Inhibitory Effect @ Max Dose (10 µM) (5-HT1A (serotonin)): 12.31% | % Inhibitory Effect @ Max Dose (10 µM) (ETA (endothelin)): −0.32% | % Inhibitory Effect @ Max Dose (10 µM) (AD2 (adenosine)): −13.58% | % Inhibitory Effect @ Max Dose (10 µM) (5-HT1B (serotonin)): 4.71% | % Inhibitory Effect @ Max Dose (10 µM) (D2 (dopamine)): 10.34% | % Inhibitory Effect @ Max Dose (10 µM) (op-k (opioid)): 11.54% | % Inhibitory Effect @ Max Dose (10 µM) (op-m (opioid)): 20.94% | % Inhibitory Effect @ Max Dose (10 µM) (5-HT2B (serotonin)): −24.98% | % Inhibitory Effect @ Max Dose (10 µM) (H2 (histamine)): −18.49% | % Inhibitory Effect @ Max Dose (10 µM) (a1a (adrenoceptor)): 68.39% | % Inhibitory Effect @ Max Dose (10 µM) (V1A (vasopressin)): −1.57% | % Inhibitory Effect @ Max Dose (10 µM) (H1 (histamine)): 12.37% | % Inhibitory Effect @ Max Dose (10 µM) (CB2 (cannabinoid)): −8.86% | % Inhibitory Effect @ Max Dose (10 µM) (op-d (opioid)): −15.46% | % Inhibitory Effect @ Max Dose (10 µM) (CB1 (cannabinoid)): −9.21% | % Inhibitory Effect @ Max Dose (10 µM) (CCKa): 16.26% | % Inhibitory Effect @ Max Dose (10 µM) (b2 (adrenoceptor)): −3.46% | % Inhibitory Effect @ Max Dose (10 µM) (5-HT2A (serotonin)): −7.10% | % Inhibitory Effect @ Max Dose (10 µM) (a2a (adrenoceptor)): 5.16% | % Inhibitory Effect @ Max Dose (10 µM) (b1 (adrenoceptor)): 30.48% | % Inhibitory Effect @ Max Dose (10 µM) (D1 (dopamine)): 1.10% | Levels of MCL-1 and MYC in tumor (MV-4-11 xenograft tumor; from 2 hours through 48-hour time point): began to decrease significantly | Expression of p-Rpb1 phospho-Ser2 in tumor (MV-4-11 xenograft tumor; from one hour through 48 hours post-administration): began to decrease significantly
